Data as given in publication PMC8699473, “An Easily Expandable Multi-Drug LC-MS Assay for the Simultaneous Quantification of 57 Oral Antitumor Drugs in Human Plasma” (Cancers, 2021).

Test: Long-term stability in spiked pooled human plasma

Structure (SMILES)	Long-term stability, 1 month, -20°C Accuracy [%] (validation standard 2xLLOV)	Long-term stability, 1 month, -80°C Accuracy [%] (validation standard 2xLLOV)	Long-term stability, 2 month, -20°C Accuracy [%] (validation standard 2xLLOV)	Long-term stability, 2 month, -80°C Accuracy [%] (validation standard 2xLLOV)	Long-term stability, 3 month, -20°C Accuracy [%] (validation standard 2xLLOV)	Long-term stability, 3 month, -80°C Accuracy [%] (validation standard 2xLLOV)	Long-term stability, 6 weeks, 4°C, without daylight Accuracy [%] (validation standard 2xLLOV)	Long-term stability, 1 month, -20°C Accuracy [%] (validation standard LLOV)	Long-term stability, 1 month, -80°C Accuracy [%] (validation standard LLOV)	Long-term stability, 2 month, -20°C Accuracy [%] (validation standard LLOV)	Long-term stability, 2 month, -80°C Accuracy [%] (validation standard LLOV)	Long-term stability, 3 month, -20°C Accuracy [%] (validation standard LLOV)	Long-term stability, 3 month, -80°C Accuracy [%] (validation standard LLOV)	Long-term stability, 6 weeks, 4°C, without daylight Accuracy [%] (validation standard LLOV)	Long-term stability, 1 month, -20°C Accuracy [%] (validation standard MOV)	Long-term stability, 1 month, -80°C Accuracy [%] (validation standard MOV)	Long-term stability, 2 month, -20°C Accuracy [%] (validation standard MOV)	Long-term stability, 2 month, -80°C Accuracy [%] (validation standard MOV)	Long-term stability, 3 month, -20°C Accuracy [%] (validation standard MOV)	Long-term stability, 3 month, -80°C Accuracy [%] (validation standard MOV)	further results
COc1cc2ncnc(Nc3ccc(F)c(Cl)c3)c2cc1OCCCN1CCOCC1 [Gefitinib]	99.2	94.2	105.6	108.5	103.9	101.3	89.3	95.8	89.0	101.3	102.7	100.2	99.5	78.5	100.7	99.3	105.1	104.1	102.7	99.9	Long-term stability, 6 weeks, 4°C, without daylight Accuracy [%] (validation standard MOV): 105.7%; Long-term stability, 1 month, -20°C Accuracy [%] (validation standard ULOV): 98.5%; Long-term stability, 1 month, -80°C Accuracy [%] (validation standard ULOV): 93.5%; Long-term stability, 2 month, -20°C Accuracy [%] (validation standard ULOV): 99.2%; Long-term stability, 2 month, -80°C Accuracy [%] (validation standard ULOV): 101.3%; Long-term stability, 3 month, -20°C Accuracy [%] (validation standard ULOV): 99.2%; Long-term stability, 3 month, -80°C Accuracy [%] (validation standard ULOV): 99.2%; Long-term stability, 6 weeks, 4°C, without daylight Accuracy [%] (validation standard ULOV): 97.6%
Cc1ccc(NC(=O)c2ccc(CN3CCN(C)CC3)cc2)cc1Nc1nccc(-c2cccnc2)n1 [Imatinib]	97.8	96.3	104.1	112.9	64.1	72.7	103.4	88.0	77.3	95.6	103.3	19.7	18.2	86.4	87.1	84.4	99.4	96.4	90.0	90.1	Long-term stability, 6 weeks, 4°C, without daylight Accuracy [%] (validation standard MOV): 95.4%; Long-term stability, 1 month, -20°C Accuracy [%] (validation standard ULOV): 87.9%; Long-term stability, 1 month, -80°C Accuracy [%] (validation standard ULOV): 79.8%; Long-term stability, 2 month, -20°C Accuracy [%] (validation standard ULOV): 91.0%; Long-term stability, 2 month, -80°C Accuracy [%] (validation standard ULOV): 89.1%; Long-term stability, 3 month, -20°C Accuracy [%] (validation standard ULOV): 89.6%; Long-term stability, 3 month, -80°C Accuracy [%] (validation standard ULOV): 89.4%; Long-term stability, 6 weeks, 4°C, without daylight Accuracy [%] (validation standard ULOV): 89.8%
CS(=O)(=O)CCNCc1ccc(-c2ccc3ncnc(Nc4ccc(OCc5cccc(F)c5)c(Cl)c4)c3c2)o1 [Lapatinib]	91.4	92.2	84.4	102.3	72.0	96.3	34.8	85.5	91.6	80.7	98.5	55.4	95.3	28.2	95.3	97.6	93.7	103.0	78.1	101.0	Long-term stability, 6 weeks, 4°C, without daylight Accuracy [%] (validation standard MOV): 101.1%; Long-term stability, 1 month, -20°C Accuracy [%] (validation standard ULOV): 96.6%; Long-term stability, 1 month, -80°C Accuracy [%] (validation standard ULOV): 94.5%; Long-term stability, 2 month, -20°C Accuracy [%] (validation standard ULOV): 101.5%; Long-term stability, 2 month, -80°C Accuracy [%] (validation standard ULOV): 100.9%; Long-term stability, 3 month, -20°C Accuracy [%] (validation standard ULOV): 95.4%; Long-term stability, 3 month, -80°C Accuracy [%] (validation standard ULOV): 96.7%; Long-term stability, 6 weeks, 4°C, without daylight Accuracy [%] (validation standard ULOV): 99.9%
O=C(Nc1cnn2ccc(N3CCC[C@@H]3c3cc(F)ccc3F)nc12)N1CC[C@H](O)C1 [Larotrectinib]	97.9	92.9	103.6	104.7	100.8	98.8	106.7	85.6	87.5	103.5	102.1	96.4	94.2	115.2	96.7	97.2	99.1	103.2	96.2	91.1	Long-term stability, 6 weeks, 4°C, without daylight Accuracy [%] (validation standard MOV): 105.2%; Long-term stability, 1 month, -20°C Accuracy [%] (validation standard ULOV): 95.0%; Long-term stability, 1 month, -80°C Accuracy [%] (validation standard ULOV): 95.5%; Long-term stability, 2 month, -20°C Accuracy [%] (validation standard ULOV): 102.5%; Long-term stability, 2 month, -80°C Accuracy [%] (validation standard ULOV): 104.6%; Long-term stability, 3 month, -20°C Accuracy [%] (validation standard ULOV): 97.8%; Long-term stability, 3 month, -80°C Accuracy [%] (validation standard ULOV): 95.6%; Long-term stability, 6 weeks, 4°C, without daylight Accuracy [%] (validation standard ULOV): 98.0%
